Where a name gives a salt, the structure may show the parent alone.
Legend:
[1] = test system: Interferon beta (IFNβ), interleukin-6 (IL-6) and tumor necrosis factor alpha (TNFα); assay: Serum and tumor cytokine levels in CT26 tumor-bearing mice (ELISA); assay type: in vivo, BALB/c mice; conditions: 0.375 mg/kg single i.v.
Procedure: Pharmacokinetic and Pharmacodynamic Profiling and Estimation of Immune Cell Infiltration in Tumors Following Treatment with Compounds 2, 6, 8, 12 and 14
Serum and tumor cytokine levels and corresponding compound concentrations in mouse plasma were determined following single-dose intravenous administration in CT26 (murine colorectal carcinoma) tumor-bearing mice. Briefly, naïve BALB/c mice in the age group of 6-8 weeks were inoculated with 0.1 million CT-26 cells/animal in phosphate buffered saline (PBS), subcutaneously. […] Blood and tumor samples were harvested at various time points up to 24 h post-dose. Tumor samples were homogenized and prepared for cytokine estimation (ELISA) and compound concentration were determined by LC-MS/MS. Serum aliquots and tumor samples were snap-frozen and stored at −80° C. till further analysis. Serum and tumor samples were evaluated for Interferon beta (IFNβ), interleukin-6 (IL-6) and tumor necrosis factor alpha (TNFα) by enzyme linked immunosorbent assay (ELISA) using kits from R & D systems (Quantikine mouse IL-6 and TNFα kits) and PBL biosciences (Verikine mouse IFNβ kit).
Cytokine analysis from mouse serum samples: For IL-6 and TNFα estimation, 50 μL of test samples or internal standard or control were applied to wells in duplicates and incubated for 2 h at room temperature, followed by aspiration and washing four times with 400 μL of wash buffer. 100 μL of mouse IL-6 or TNFα conjugate solution was added and incubated further for 2 h at room temperature and followed later by 4 wash cycles. 100 μL of substrate solution was added to each well with addition of stop solution after 30 min. Optical density was measured at 450 nm averaged and was used for further calculations following subtraction of respective blank controls. Cytokine concentrations were determined by interpolating the optical density of samples into the reference standard curve utilizing four parameter logistic (4-PL) curve-fit. Cytokine concentrations were normalized with their respective dilution factors and represented in pg/mL. For IFNβ estimation, 100 μL test sample or internal standard or controls were applied to the wells in duplicates and incubated for 1 h at room temperature followed by three washes and addition of the anti-mouse IFNβ antibody solution with further 1 h incubation. This was followed by addition of horseradish peroxidase (HRP) solution and three washes, later addition of TMB substrate and reading the optical density at 450 nm. Optical densities were blank-subtracted and interpolated to the reference standard utilizing the four parameter logistic (4-PL) curve-fit. Cytokine concentrations were normalized with their respective dilution factors and represented in pg/mL. Tables 4 and 5 indicate cytokine levels for compounds 2, 6, 8, 12, and 14 in serum and tumor at different administered doses.
Cytokine analysis from tumor samples: Tumor samples were homogenized in a bead-based homogenizer and lysates were prepared with buffer supplemented with 1% Triton X-100 and protease inhibitors. Cytokine levels were estimated by ELISA and expressed as pg/g tumor.

CD3^+CD8^+ T cells = assay: Estimation of immune cell infiltration in tumors (flow cytometry); assay type: in vivo, Balb/c mice
Procedure: Estimation of immune cell infiltration in tumors: CT-26 tumor-bearing Balb/c mice were treated intravenously with 0.375 mg/kg of test compounds and blood and tumors were processed for analysis of CD8^+, CD3^+ and CD45^+ T cells at 24 h and 96 h after start of treatment. Blood samples were subjected to RBC lysis and the cells were recovered by centrifugation. Following wash with PBS, the cells were blocked using TruStain FcX™ blocking antibody and stained with fluorophore-tagged anti-CD45, anti-CD3 and anti-CD8 antibodies. Tumor samples were minced and subjected to tissue digestion using freshly prepared collagenase-IV solution (1 mg/ml) containing DNase (0.05 mg/ml) for 1-1.5 h at 37° C. and 150-200 rpm. Single cell suspension was prepared by filtering it through a 100 μm mesh and checked for cell viability. Cells were stained with various antibodies as mentioned above. The distinct T cell subsets were analysed on FACS Canto II (BD) and percentage of each population was calculated after initial gating of CD45^+ lymphocyte population.

Human STING = target: T1, Human STING (Homo sapiens, UniProt Q86WV6, G230A/H232R/R293Q/R71H); assay: Stimulation of human STING signaling in THP1 cell line (THP1-Blue ISG SEAP reporter); assay type: cell-based; conditions: THP1-Blue ISG cells, SEAP activity, 18-20 hours
T1 construct: using human THP1-Blue™ ISG SEAP based reporter cell line (Invivogen); host or cells: THP1-Blue ISG cells (human monocytic THP-1 derived SEAP reporter line)
Procedure: Biological Assay—Stimulation of Human STING Signaling in THP1 Cell Line
Compounds were tested for their STING activation potential using human THP1-Blue™ ISG SEAP based reporter cell line (Invivogen). Briefly, THP1-Blue ISG cells (100,000 cells/well) in 96 well plate were treated with varying concentrations of test and reference compounds and incubated at 37° C. with 5% CO2 for 18-20 hours. The control untreated cells were also set up. Post incubation, the cell supernatant was tested for SEAP (Secreted Embryonic Alkaline Phosphatase) activity using the QuantiBlue™ substrate reagent (Invivogen). The formation of blue coloured product was quantified by measuring absorbance at wavelength of 620 nm using PheraStar/Tecan reader. The average of duplicate readouts for each data point was plotted in GraphPad prism 6 against the concentration of test or reference compound to calculate EC50 value. The fold of SEAP induction or increase in luminescence at different data points was estimated against the un-stimulated cell control set.

T1 sequence (Q86WV6 whole entry R71H/G230A/H232R/R293Q): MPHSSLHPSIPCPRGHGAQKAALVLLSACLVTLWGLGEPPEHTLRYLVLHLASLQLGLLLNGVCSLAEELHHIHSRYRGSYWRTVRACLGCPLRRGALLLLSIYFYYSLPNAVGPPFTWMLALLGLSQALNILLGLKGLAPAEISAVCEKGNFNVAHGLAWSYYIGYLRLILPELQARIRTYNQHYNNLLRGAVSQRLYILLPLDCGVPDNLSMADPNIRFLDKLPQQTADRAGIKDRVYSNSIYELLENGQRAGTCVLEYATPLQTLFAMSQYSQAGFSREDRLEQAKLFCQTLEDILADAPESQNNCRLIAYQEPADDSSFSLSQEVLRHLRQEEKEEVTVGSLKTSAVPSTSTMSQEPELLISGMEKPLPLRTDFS

EC50 (Human STING): 1 to 10 nM
Compound: CCn1nc(C)cc1C(=O)Nc1nc2cc(C(N)=O)cc3c2n1C/C=C/Cn1c(NC(=O)c2cc(C)nn2CC)nc2cc(C(=O)NCCCn4cc(C(=O)O)cn4)cc(c21)OCCCO3 [Compound 8, (E)-1-(3-(12-carbamoyl-1,15-bis(1-ethyl-3-methyl-1H-pyrazole-5-carboxamido)-8,9,16,19-tetrahydro-7H-6,10-dioxa-2,14,15a,19a-tetraazacyclopentadeca[3,2,1-cd:8,9,10-c′d′]diindene-4-carboxamido)propyl)-1H-pyrazole-4-carboxylic acid sodium salt]
Serum IFNβ ([1]; 3.5 h (Table 6)): 20553 ± 3011.24 pg/mL
Tumor IFNβ ([1]; 3.5 h (Table 6)): 7975 ± 1164.2 pg/g tumor
Serum IFNβ ([1]; 8 h (Table 6)): 307 ± 64.6 pg/mL
Tumor IFNβ ([1]; 8 h (Table 6)): 1182 ± 321.2 pg/g tumor
Serum IFNβ ([1]; 12 h (Table 6)): 43 ± 33.5 pg/mL
Tumor IFNβ ([1]; 12 h (Table 6)): 284 ± 84.2 pg/g tumor
Serum IFNβ ([1]; 24 h (Table 6)): BLQ
Tumor IFNβ ([1]; 24 h (Table 6)): 197 ± 84.7 pg/g tumor
% CD3^+CD8^+ T cells (CD3^+CD8^+ T cells; infiltration in tumor, 96 h post treatment, 0.375 mg/kg single i.v.): 15.5 ± 2.2%
% CD3^+CD8^+ T cells infiltrating the tumor as compared to the vehicle-treated group (CD3^+CD8^+ T cells; single i.v. dose of 0.375 mg/kg, 96 h post treatment initiation): increase
